According to ChEMBL document CHEMBL1201862, “PubChem BioAssay data set” (2004):
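Method: 48-hour compound exposure of cells in 96-well plates, five concentrations, linear interpolation of endpoints. Here, GI50 denotes the concentration required for 50% inhibition of growth.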 Calls of active or inactive are those of the source. Rule as the data show it: active = GI50 up to about 1.1 µM and inactive = higher.

What was measured:
Assay in all cases: inhibition of tumour cell growth, NCI panel, 48 h
SK-MEL-2 = tested on: SK-MEL-2
786-0 = tested on: 786-0
NCI-H226 = tested on: NCI-H226
A498 = tested on: A498
Malme-3M = tested on: Malme-3M
MCF7 = tested on: MCF7
Hs-578T = tested on: Hs-578T
HT-29 = tested on: HT-29
CCRF-CEM = tested on: CCRF-CEM
T47D = tested on: T47D
SNB-19 = tested on: SNB-19
EKVX = tested on: EKVX
OVCAR-4 = tested on: OVCAR-4
SF-539 = tested on: SF-539
SK-MEL-5 = tested on: SK-MEL-5
UACC-62 = tested on: UACC-62
LOX IMVI = tested on: LOX IMVI
ACHN = tested on: ACHN
MDA-MB-231 = tested on: MDA-MB-231
SK-OV-3 = tested on: SK-OV-3
COLO 205 = tested on: COLO 205
HOP-62 = tested on: HOP-62
SK-MEL-28 = tested on: SK-MEL-28
SN12C = tested on: SN12C
SF-295 = tested on: SF-295
NCI-H23 = tested on: NCI-H23
NCI-H460 = tested on: NCI-H460
HOP-92 = tested on: HOP-92
MOLT-4 = tested on: MOLT-4
UACC-257 = tested on: UACC-257
DU-145 = tested on: DU-145
CAKI-1 = tested on: CAKI-1
MDA-MB-435 = tested on: MDA-MB-435
RXF 393 = tested on: RXF 393
A549 = tested on: A549
SF-268 = tested on: SF-268
U-251 = tested on: U-251
BT-549 = tested on: BT-549
RPMI-8226 = tested on: RPMI-8226
HCT-116 = tested on: HCT-116
HL-60 = tested on: HL-60
M14 = tested on: M14
NCI/ADR-RES = tested on: NCI/ADR-RES
SR = tested on: SR
MDA-N = tested on: MDA-N
IGROV-1 = tested on: IGROV-1
SW-620 = tested on: SW-620
PC-3 = tested on: PC-3
K562 = tested on: K562
HCC 2998 = tested on: HCC 2998
NCI-H522 = tested on: NCI-H522
SNB-75 = tested on: SNB-75
OVCAR-8 = tested on: OVCAR-8
TK-10 = tested on: TK-10
HCT-15 = tested on: HCT-15
KM12 = tested on: KM12
OVCAR-5 = tested on: OVCAR-5
UO-31 = tested on: UO-31
OVCAR-3 = tested on: OVCAR-3

CN(CC1(CO)CCC1)c1cc(Cl)nc(N)n1
GI50 (SK-MEL-2): > 100 µM (inactive)
GI50 (786-0): > 100 µM (inactive)
GI50 (NCI-H226): > 100 µM (inactive)
GI50 (A498): > 100 µM (inactive)
GI50 (Malme-3M): > 100 µM (inactive)
GI50 (MCF7): > 100 µM (inactive)
GI50 (Hs-578T): > 100 µM (inactive)
GI50 (HT-29): > 100 µM (inactive)
GI50 (CCRF-CEM): > 100 µM (inactive)
GI50 (T47D): > 100 µM (inactive)
GI50 (SNB-19): > 100 µM (inactive)
GI50 (EKVX): 43.3 µM (inactive)
GI50 (OVCAR-4): 58.9 µM (inactive)
GI50 (SF-539): > 100 µM (inactive)
GI50 (SK-MEL-5): > 100 µM (inactive)
GI50 (UACC-62): > 100 µM (inactive)
GI50 (LOX IMVI): > 100 µM (inactive)
GI50 (ACHN): > 100 µM (inactive)
GI50 (MDA-MB-231): > 100 µM (inactive)
GI50 (SK-OV-3): > 100 µM (inactive)
GI50 (COLO 205): > 100 µM (inactive)
GI50 (HOP-62): > 100 µM (inactive)
GI50 (SK-MEL-28): > 100 µM (inactive)
GI50 (SN12C): > 100 µM (inactive)
GI50 (SF-295): > 100 µM (inactive)
GI50 (NCI-H23): > 100 µM (inactive)
GI50 (NCI-H460): > 100 µM (inactive)
GI50 (HOP-92): > 100 µM (inactive)
GI50 (MOLT-4): > 100 µM (inactive)
GI50 (UACC-257): > 100 µM (inactive)
GI50 (DU-145): > 100 µM (inactive)
GI50 (CAKI-1): > 100 µM (inactive)
GI50 (MDA-MB-435): > 100 µM (inactive)
GI50 (RXF 393): > 100 µM (inactive)
GI50 (A549): > 100 µM (inactive)
GI50 (SF-268): > 100 µM (inactive)
GI50 (U-251): > 100 µM (inactive)
GI50 (BT-549): > 100 µM (inactive)
GI50 (RPMI-8226): > 100 µM (inactive)
GI50 (HCT-116): > 100 µM (inactive)
GI50 (HL-60): > 100 µM (inactive)
GI50 (M14): > 100 µM (inactive)
GI50 (NCI/ADR-RES): > 100 µM (inactive)
GI50 (SR): > 100 µM (inactive)
GI50 (MDA-N): > 100 µM (inactive)
GI50 (IGROV-1): > 100 µM (inactive)
GI50 (SW-620): > 100 µM (inactive)
GI50 (PC-3): > 100 µM (inactive)
GI50 (K562): > 100 µM (inactive)
GI50 (HCC 2998): > 100 µM (inactive)
GI50 (NCI-H522): > 100 µM (inactive)
GI50 (SNB-75): 78.5 µM (inactive)
GI50 (OVCAR-8): > 100 µM (inactive)
GI50 (TK-10): > 100 µM (inactive)
GI50 (HCT-15): > 100 µM
GI50 (KM12): > 100 µM (inactive)
GI50 (OVCAR-5): > 100 µM (inactive)
GI50 (UO-31): > 100 µM (inactive)
GI50 (OVCAR-3): > 100 µM (inactive)
